Experimental findings from patent US6682896B1, “Peptides representing epitopic sites on r-IFN-β, antibodies thereto and uses thereof” (Schering Aktiengesellschaft, priority 1988, dated 2004) are described below.

Settings in all cases: 50 μg peptide per well dried to well; goat anti-mouse/HRP, ABTS
The test system of one experiment is non-neutralizing mAb B2b. The experiment can be described thus: ELISA binding of mAb B2b to plate-dried synthetic peptides. How it is done: (§1) A series of enzyme-linked immunosorbent assays (ELISA) were run in which a panel of three neutralizing mab's, identified as A1, A5 and A7 (developed by […] Grossberg at the Medical College of Wisconsin) and a single non-neutralizing mAb, identified as B2b (received from Medical College of Wisconsin, […] and S. Grossberg), was assessed for binding to synthetic peptides IB, IC, IE, and a control. In each case, the peptide was dissolved in 0.05M Tris buffer, pH 9.5 and aliquoted in 100 μl volumes to wells of a microtiter plate (Corning) at a concentration of 50 μg peptide per well. The plate was placed in a vacuum dessicator overnight to dry the peptide to the well. Standard ELISA procedures were followed after the overnight coupling, i.e. common blocking steps, washes, incubation conditions and color development of the appropriate goat anti-mouse/horseradish peroxidase conjugate with ABTS substrate. […] The non neutralizing mAb B2b reacted with peptides IB and IC but not with IE.
For orientation: In an ELISA, binding on a coated surface is turned into a signal by an enzyme label.

The next experiment relates to neutralizing mAb A7. The experiment can be described thus: ELISA binding of mAb A7 to plate-dried synthetic peptides. As to the method:
as §1

For the next experiment, the system named is neutralizing mAb A5. Nature of the experiment: ELISA binding of mAb A5 to plate-dried synthetic peptides. How it is done: as §1

On to “H-IPEEIKQL-OH [peptide IE, NH2-Ile-Pro-Glu-Glu-Ile-Lys-Gln-Leu-COOH]”, for which the “Reaction (binding) of non-neutralizing mAb B2b with peptide in ELISA” value in the experiment on non-neutralizing mAb B2b is “not with IE”. Also, the “Reaction (binding) of mAb A7 with peptide in ELISA” value in the experiment with neutralizing mAb A7 was “virtually no activity”. The “Reaction (binding) of mAb A5 with peptide in ELISA” value in the experiment on neutralizing mAb A5 is “preferential binding”.
